Reference: patent US7329646B2, “Derivatives of the insulinotropic peptide exendin-4 and methods of production thereof” (Shanghai Huayi Bio-Lab Co., Ltd., priority 2001, dated 2008)

How the values were obtained:
Format in all cases: in vivo
[1] = tested on: non-diabetic C57 BL/6J mice; experiment: Blood glucose after glucose challenge in non-diabetic C57 BL/6J mice (Example 3); conditions: overnight-fasted mice; 20% glucose (200 μl) i.p. with simultaneous s.c. peptide: GLP-1 1 μg, exendin-4 0.2 μg, derivative 0.2 μg; 0, 30, 60, 120 minutes; FIG. 2
Protocol: Experiments were conducted to determine the effect on the blood glucose levels of non-diabetic C57 BL/6J mice of the exendin-4 (Leu14, Lys20, Arg40) peptide derivative relative to GLP-1 and the wild-type exendin-4 peptide. Overnight-fasted C57 BL/6J mice weighing 20 g were injected with a 20% glucose solution (200 μl) intra-peritoneally and simultaneously subcutaneously injected with either a saline control, GLP-1 (1 μg), exendin-4 (0.2 μg), or exendin-4 (Leu14, Lys20, Arg40) (0.2 μg). Blood glucose levels were determined using standard glucose determination kits at 0, 30, 60, and 120 minutes post-injection.

db/db diabetic mice = experiment: Blood glucose after glucose challenge in db/db diabetic mice (Example 4); conditions: 2-hour-fasted db/db mice; 20% glucose (200 μl) i.p. with simultaneous s.c. GLP-1 4 μg, E4m 0.2 μg or Humalog 4 μg; 0-180 minutes; FIG. 3
Protocol: In order to extend the experimental results obtained in Example 3 with non-diabetic mice, experiments were also conducted to determine the effect on blood glucose levels of db/db diabetic mice of the exendin-4 (Leu14, Lys20, Arg40) peptide derivative relative to GLP-1 and Rapid Insulin.
Specifically, 2-hour-fasted db/db mice weighing 50 g were injected with a 20% glucose solution (200 μl) intra-peritoneally and simultaneously subcutaneously injected with either a saline control, GLP-1 (4 μg), exendin-4 (Leu14, Lys20, Arg40) (“E4m”)(0.2 μg), or the commercially available insulin, Humalog® (Eli Lilly and Company) (4 μg). Blood glucose levels were determined using standard glucose determination kits at 0, 30, 60, 120, and 180 minutes post-injection, and hypoglycemia (%) was calculated relative to the baseline (t=0) blood glucose level of animals receiving saline control.

C57 BL/6J mice = experiment: Long-term blood glucose buffering with second glucose challenge at 240 minutes in C57 BL/6J mice (Example 5); conditions: FIG. 4; for effect on rise in blood glucose levels after the initial glucose injection: overnight-fasted mice, 20% glucose (200 μl) i.p. with simultaneous s.c. GLP-1 1 μg or E4m 0.2 μg; for activity on blood glucose after second glucose challenge at 240 minutes after the first injection: peptide given only at first injection (GLP-1 1 μg, E4m 0.2 μg), glucose measured at 240, 270, 300 minutes
Protocol: In order to determine the long-term ability of the exendin-4 derivative exendin-4 (Leu14, Lys20, Arg40) to buffer blood glucose levels, experiments were performed in which blood glucose levels in the presence of this exendin-4 derivative were determined at various times after an initial glucose challenge at 0 minutes and then a second glucose challenge at 240 minutes.
Specifically, overnight-fasted C57 BL/6J mice weighing 20 g were injected with a 20% glucose solution (200 μl) intra-peritoneally and simultaneously subcutaneously injected with either a saline control, GLP-1 (1 μg), or exendin-4 (Leu14, Lys20, Arg40) (0.2 μg). Then, at 240 minutes after the initial injection a second injection of 20% glucose solution (200 μl) intra-peritoneally was performed. Blood glucose levels were determined using standard glucose determination kits at 0, 30, 60, 240, 270, and 300 minutes after the first injection.

NOD mice [2] = experiment: Blood glucose after glucose challenge in NOD mice (Example 6); conditions: overnight-fasted NOD mice
Protocol: Experiments to determine the effects on blood glucose levels of the exendin-4 derivative exendin-4 (Lys20, Arg40) were conducted in NOD mice provided by the Shanghai Laboratory Animal Center of Chinese Academy of Sciences. 0.9% sodium chloride solution and exendin-4 (Lys20, Arg40) were used in the assay. Plasma glucose testing kits were purchased from Shanghai Institute of Biological Products Ministry of Health.
Overnight-fasted NOD mice were divided into two groups. Mice in the first group were abdominally injected with 200 μl of a solution containing 40% glucose and 1 μg of exendin-4 (Lys20, Arg40). Mice in the second (control) group […] with a glucose solution.
30 μl of blood sample was taken from retro-orbital zeinous sinus immediately using a scaled capillary which was treated beforehand with heparin, placed into 300 μl of normal saline and mixed with the saline. Erythrocytes were removed by centrifugation at 3,000 rpm, while blood serum was kept for glucose determination. Different blood samples were taken as described above at 30 min, 60 min and 120 min, and blood serum was separated. Glucose concentrations of three plasma samples were determined according to the method described in the testing kits, and the decreasing effect of exendin-4 (Lys20, Arg40) on blood glucose concentration was determined.

NOD mice [3] = experiment: Insulin secretion in NOD mice, insulin radioimmunoassay (Example 7); conditions: abdominal injection of 5 μg in 200 μl saline, 5, 10, 20, 30 min, data not shown
Protocol: In order to determine whether the ability of the exendin-4 derivative exendin-4 (Lys20, Arg40) to decrease blood glucose in NOD mice is an insulinotropic effect, experiments were conducted to measure the effect of administration of this compound on insulin levels. In these experiments, NOD mice were provided by Shanghai Laboratory Animal Center of Chinese Academy of Sciences. 40% glucose solution, 0.9% sodium chloride solution, and exendin-4 (Lys20, Arg40) were used in the experiment. Insulin radioimmunoassay kits were purchased from Shanghai Institute of Biological Products Ministry of Health.
NOD mice were divided into two groups. 50 μl of blood sample was taken from the plexus venosus of the eye using a scaled capillary, the inner wall of which was rinsed with 1 mg/mL heparin and was air-dried beforehand. Mice in the two groups were abdominally injected with either 200 μl normal saline alone, or with a similar amount of saline containing 5 μg exendin-4 (Lys20, Arg40), respectively at t=0. Different blood samples were taken as described above at 5 min, 10 min, 20 min and 30 min. […] Insulin concentrations of different samples were determined by following the methods described in the radioimmunoassay kit, and the stimulating effect of exendin-4 (Lys20, Arg40) on insulin secretion was determined.

Healthy C57 BL mice = experiment: C-peptide secretion in healthy C57 BL mice, C-peptide radioimmunoassay (Example 8); conditions: abdominal injection of 5 μg in 200 μl saline, data not shown
Protocol: In order to further investigate the insulinotropic properties of the exendin-4 derivative exendin-4 (Lys20, Arg40), experiments were conducted to measure the effect of administration of this compound on the production of C-peptide, which, as discussed previously, is produced in equal amounts as insulin by the cleavage of proinsulin. Healthy C57 BL mice were provided by Shanghai Laboratory Animal Center of Chinese Academy of Sciences. 40% glucose solution, 0.9% sodium chloride solution and exendin-4 (Lys20, Arg40) were used in the experiments. Insulin radioimmunoassay kits and C-peptide radioimmunoassay kits were purchased from Shanghai Institute of Biological Products Ministry of Health.
Healthy C57 BL mice were divided into two groups. 50 μl of blood sample was taken from plexus venosus of the eye using a scaled capillary, the inner wall of which was rinsed with 1 mg/mL heparin and was air-dried beforehand. Mice in two groups were abdominally injected with 200 μl normal saline alone, or with a similar amount of saline containing 5 μg of exendin-4 (Lys20, Arg40), respectively at t=0. […] The C-peptide concentration in each sample was determined by following the method described by the radioimmunoassay kit, and the stimulating effect of exendin-4 (Lys20, Arg40) on C-peptide secretion was determined.

Substance | effect on blood glucose levels after glucose challenge [1] | effect on blood glucose levels after glucose challenge (db/db diabetic mice) | effect on rise in blood glucose levels after the initial glucose injection (C57 BL/6J mice) | activity on blood glucose after second glucose challenge at 240 minutes after the first injection (C57 BL/6J mice) | time after administration up to which dramatic fluctuations in glucose concentration are prevented (NOD mice [2]; 200 μl 40% glucose with 1 μg peptide, abdominal injection) | blood glucose concentration after glucose challenge (NOD mice [2]; abdominal injection of 200 μl 40% glucose with 1 μg peptide, 30, 60, 120 min, data not shown) | stimulating effect on insulin secretion (NOD mice [3]) | stimulating effect on C-peptide secretion (Healthy C57 BL mice)
Glucagon-like peptide-1 (HAEGTFTSDVSSYLEGQAAKEFIAWLVKGR; listed as Homo sapiens) [GLP-1, peptide hormone secreted by intestinal cells that enhances insulin secretion, reference compound] | acted to buffer changes in blood glucose levels | resulted in the buffering of changes in blood glucose levels | drastically reduced | GLP-1 activity is essentially abolished | – | – | – | –
Humalog®: commercially available insulin, Humalog® (Eli Lilly and Company) | – | resulted in the buffering of changes in blood glucose levels | – | – | – | – | – | –
exendin-4 (Leu14, Lys20, Arg40) | produced a response profile virtually identical to that seen with the wild-type exendin-4 sequence | resulted in the buffering of changes in blood glucose levels | essentially eliminated | activity at times of 240 or more minutes after first injection is preserved | – | – | – | –
exendin-4 (Lys20, Arg40) | – | – | – | – | at least 2 hours | never showed a notable increase in blood glucose | significantly stimulates insulin secretion | significantly stimulates the secretion of C-peptide relative to the control
exendin-4 [wild-type exendin-4] | acted to buffer changes in blood glucose levels | – | – | – | – | – | – | –
